Results on 3 compounds are retold here after paper PMC6504873, “High-throughput screening of the Plasmodium falciparum cGMP-dependent protein kinase identified a thiazole scaffold which kills erythrocytic and sexual stage parasites” (Scientific Reports, 2019).

The structures appear in SMILES notation. In brackets after ≈: the same amount, converted by molar mass. A value given as a limit tells only on which side of the number the result lay.

In general, solubility refers to how much of the substance goes into solution per volume. Usually chromatographic logD stands for a lipophilicity value derived from retention on a column. A low value points to a more hydrophilic compound.

The test system of one series is P. falciparum. Also on record: method as in PMID 28446690. Conditions: P. falciparum mouse model ref 44; cited from earlier work.
A further series deals with P. berghei. Also on record: method as in PMID 28446690. The note with it: P. berghei mouse model ref 44; cited from earlier work.
In the next series the target is T1, WT PfPKG (Plasmodium falciparum, UniProt Q8I719).
T1 construct: recombinant full length wild type (WT) PfPKG; His6 (N); host or cells: E. coli BL21
Put plainly: Kinase Glo enzymatic assay, recombinant WT PfPKG. Format: biochemical, P. falciparum. Conditions: WT PfPKG (μM), recombinant WT PfPKG. Here is the method: To identify new PKG inhibitor scaffolds, the 1.7 million GlaxoSmithKline Full Diversity collection was tested at a single final concentration of 10 μM against recombinant full length wild type (WT) PfPKG using a Kinase Glo-based assay (Promega). The results gave a robust Z′ mean value of 0.85. At an average statistical cut-off of 30%, 20,174 primary hits were identified with an overall hit rate of 1%. Fresh samples of these primary hits were tested in duplicate against WT PfPKG and also against human PKGIα (HuPKGIα) (Supplementary Fig. 1) at a final concentration of 10 μM (confirmation step).
(§1) Protein production was outsourced to the Division of Signal Transduction Therapy, University of Dundee. Briefly, the pTRChis expression vectors (Invitrogen) containing an N-terminally His6-tagged PfPKG wildtype and T618Q were used to transform BL21 cells (protocol adapted from[23]). The cells were grown at 37 °C until the OD600 was 0.4–0.6 then the temperature was reduced to 15 °C and the cells were induced with 250 µM IPTG and grown for a further 16–18 hours before harvesting. The His6-PfPKG was purified on Cobalt agarose followed by gel filtration and the protein was dialysed into 25 mM Hepes pH 7.5, 0.1 mM EGTA, 150 mM NaCl, 50% glycerol and 2 mM DTT.
(§2) Initial optimization of the PKG assay was performed manually in 384-well plates and analysed with GraFit 7. The buffer for all assays was 25 mM HEPES pH 7.3 (GIBCO), 10 mM MgCl2 (Sigma), 2 mM DTT (Sigma), 0.01 mM cGMP (Sigma), 0.1 mg/ml BSA (Ambion). Enzymatic activity was tested using a luminescence-based kit (Promega KinaseGlo). Addition of the first reagent depletes the unused ATP and addition of the second reagent converts ADP (product of the kinase reaction) to ATP, which is then measured through a luciferin/luciferase reaction. The amount of luminescence is directly proportional to ATP turnover by the kinase. The kit was chosen because it can be miniaturized to small volumes (i.e. 4 µl) in 1536-well plates, for use in HTS.
(§3) We used PKA peptide substrate (SCP0212, Sigma-Aldrich) for WT and TQ PfPKG, dissolved in milliQ water at a final concentration of 5 mM, and Long S6 peptide substrate (produced at the University of Dundee, sequence […]) for HuPKGIα, dissolved in water at a final concentration of 30 mM.
(§4) We calculated the Michaelis-Menten (Km) constant for ATP and peptide substrate (PKA or Long S6) for all enzymes using GraphPad Prism (Supplementary Figs 2 and 3 and Supplementary Table 3). In order to identify different types of PKG inhibitors, including ATP competitive or non-competitive inhibitors, as well as inhibitors that bind to the peptide substrate pocket, we performed all assays using ATP and peptide substrate at a concentration equal to the Km. We also determined enzyme activity by calculating ATP turnover (Kcat) over the Km (Supplementary Table 3). The Kcat was calculated as (Vmax*slope)/[E] where Vmax is the maximum velocity and [E] is the concentration of the enzyme.
(§5) The plates containing the compounds were prepared at GSK in Upper Providence or Stevenage. Compounds were tested at a single final concentration of 10 µM or in a dose response with a range of concentrations starting from 100 μM to 1.6 nM (1 in 3 serial dilutions). Compounds were dispensed in the plates at the required concentration in a 40 nl volume. All plates (1536-well white Greiner) contained 40 nl of DMSO in lanes 11 and 12 (control 1, 100% enzyme activity) and were empty in lanes 35 and 36 (control 2, 0% enzyme activity). The plates were removed from −20 °C 1 hour before starting the assay. Using a Multidrop Combi dispenser (Thermo Scientific), 2 µl of the buffer containing ATP and the substrate were added to all wells then 2 µl of buffer only were added to column 35 and 36. Finally 2 µl of buffer containing the enzyme were dispensed in all the plate wells except for lanes 35 and 36. […]

The target of a further series is T2, TQ PfPKG (PfPKG_T618Q) (Plasmodium falciparum, UniProt Q8I719, T618Q).
T2 construct: His6 (N); host or cells: E. coli BL21
Description: Kinase Glo enzymatic assay, gatekeeper mutant TQ PfPKG. Format: biochemical, P. falciparum. Here is the method:
Taking advantage of the availability of more than 3,000 thiazole derivatives among the GSK compound collection, cluster 3 was thoroughly investigated for potent and selective inhibitors of WT PfPKG. […] We explored the binding mode by also testing compounds on the gatekeeper mutant enzyme TQ PfPKG. […] These two time points were chosen to give an indication of the speed of kill of the compounds. […] A preliminary safety test was performed on human AuroraB and LCK kinases which often underpin toxicity issues. […] Further assays for compound characterization included determination of solubility and cytotoxicity (HepG2 inhibition). Thiazoles have been previously identified as human BRaf inhibitors that are used to treat melanoma.
as §1, §2, §3, §4
as §5, with “36.” for “36. Finally 2 µl of buffer containing the enzyme were dispensed in all the plate wells except for lanes 35 and 36.”

The next series has as its system HepG2 cells. Put plainly: Cytotoxicity assay (CellTiter-Glo). Format: cell-based. The note with it: Homo sapiens, HepG2, read-out: HepG2 (μM). Here is the method:
Cytotoxicity assays were performed on HepG2 cells as previously described. HepG2 cells were removed from a T-175 TC flask using 5 mL Eagle’s MEM (containing 10% FBS, 1% NEAA, 1% penicillin/streptomycin) and dispersed in the medium. Seeding density was checked to ensure that new mono-layers were not more than 50% confluent at the time of harvesting. Cells were added to 500 mL of the same medium at a final density of 1.2 × 10^5 cells/mL. They were then dispensed (25 μL, about 3,000 cells per well) into 384-well clear-bottom plates using a Multidrop Combi dispenser. Test compounds (250 nL) were dispensed into the plates with an EchoH liquid handler prior to addition of the cells. Plates were incubated for 48 h at 37 °C, 5% CO2. After incubation, plates were equilibrated at room temperature for 30 minutes before proceeding to develop the luminescent signal. The CellTiter-GloH Reagent was allowed to equilibrate at room temperature for 30 minutes and added to the plates (25 μL per well) using a Multidrop Combi dispenser. Plates were left for 10 minutes at room temperature for stabilization and then read using a Perkin Elmer ViewLux.

Series [1] can be described thus: Aqueous kinetic solubility assay (CAD). Format: physicochemical. Conditions: several values in a cell = replicates. Here is the method: […] of 10 mM DMSO compound solution is diluted to 100 μl with pH7.4 phosphate buffered saline, equilibrated for 1 hour at room temperature and filtered through Millipore MultiscreenHTS-PCF filter plates (MSSL BPC). The filtrate is quantified by suitably calibrated Charged Aerosol Detector[56].

The next series can be described thus: PFI. In kind it is physicochemical. Here is the method: Dose response assays were performed in duplicate on WT PfPKG, HuPKGIα and a mock assay performed in the absence of enzyme (the counterscreen). Comparison of the PfPKG and HuPKGIα IC50 values gave information on selectivity and the counterscreen identified luminescent false positive compounds (see Materials and Methods). Cytotoxicity assays were also performed using a human hepatoma cell line (HepG2)[30]. […] This set of compounds was clustered by similarity using a complete-linkage algorithm and a threshold of 0.55[31]. A total of 79 clusters and 54 singletons were obtained.

Another series deals with PI3KD (Homo sapiens, UniProt O00329). Put plainly: Preliminary safety test on human PI3KD kinase. In kind it is biochemical.
A short description of series [2]: AM_Perm (artificial membrane permeability). In kind it is in vitro ADME. The note with it: PAMPA. On the technique in general: In PAMPA a lipid-coated filter parts donor from acceptor wells.
Series [3] can be described thus: ChromlogD (lipophilicity).
On the set-up of series [4]: method as in PMID 24958809. Conditions: in the clinic ref 39; cited from earlier work.

T2 sequence (Q8I719 whole entry T618Q): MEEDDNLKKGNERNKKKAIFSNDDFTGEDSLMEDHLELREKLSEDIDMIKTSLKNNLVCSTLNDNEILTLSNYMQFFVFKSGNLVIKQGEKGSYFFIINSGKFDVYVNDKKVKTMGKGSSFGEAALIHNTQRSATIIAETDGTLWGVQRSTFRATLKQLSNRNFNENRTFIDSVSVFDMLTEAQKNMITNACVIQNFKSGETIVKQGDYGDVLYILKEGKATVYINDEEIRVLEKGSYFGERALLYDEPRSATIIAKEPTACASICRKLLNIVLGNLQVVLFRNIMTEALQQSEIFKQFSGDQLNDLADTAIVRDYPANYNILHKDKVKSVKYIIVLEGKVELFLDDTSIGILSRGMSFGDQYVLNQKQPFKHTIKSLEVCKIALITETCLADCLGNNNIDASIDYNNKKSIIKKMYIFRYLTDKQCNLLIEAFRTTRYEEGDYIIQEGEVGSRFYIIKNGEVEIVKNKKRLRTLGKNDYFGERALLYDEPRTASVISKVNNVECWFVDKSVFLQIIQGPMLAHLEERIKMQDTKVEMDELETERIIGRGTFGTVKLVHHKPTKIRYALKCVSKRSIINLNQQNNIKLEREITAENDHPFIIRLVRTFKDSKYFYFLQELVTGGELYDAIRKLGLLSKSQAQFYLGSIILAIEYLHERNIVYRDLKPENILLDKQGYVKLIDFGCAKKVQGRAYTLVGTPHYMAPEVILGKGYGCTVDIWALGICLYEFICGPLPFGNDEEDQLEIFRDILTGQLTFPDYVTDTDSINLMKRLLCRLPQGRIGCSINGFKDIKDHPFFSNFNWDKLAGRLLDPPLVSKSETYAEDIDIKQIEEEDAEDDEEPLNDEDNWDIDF
T1 sequence (Q8I719 whole entry): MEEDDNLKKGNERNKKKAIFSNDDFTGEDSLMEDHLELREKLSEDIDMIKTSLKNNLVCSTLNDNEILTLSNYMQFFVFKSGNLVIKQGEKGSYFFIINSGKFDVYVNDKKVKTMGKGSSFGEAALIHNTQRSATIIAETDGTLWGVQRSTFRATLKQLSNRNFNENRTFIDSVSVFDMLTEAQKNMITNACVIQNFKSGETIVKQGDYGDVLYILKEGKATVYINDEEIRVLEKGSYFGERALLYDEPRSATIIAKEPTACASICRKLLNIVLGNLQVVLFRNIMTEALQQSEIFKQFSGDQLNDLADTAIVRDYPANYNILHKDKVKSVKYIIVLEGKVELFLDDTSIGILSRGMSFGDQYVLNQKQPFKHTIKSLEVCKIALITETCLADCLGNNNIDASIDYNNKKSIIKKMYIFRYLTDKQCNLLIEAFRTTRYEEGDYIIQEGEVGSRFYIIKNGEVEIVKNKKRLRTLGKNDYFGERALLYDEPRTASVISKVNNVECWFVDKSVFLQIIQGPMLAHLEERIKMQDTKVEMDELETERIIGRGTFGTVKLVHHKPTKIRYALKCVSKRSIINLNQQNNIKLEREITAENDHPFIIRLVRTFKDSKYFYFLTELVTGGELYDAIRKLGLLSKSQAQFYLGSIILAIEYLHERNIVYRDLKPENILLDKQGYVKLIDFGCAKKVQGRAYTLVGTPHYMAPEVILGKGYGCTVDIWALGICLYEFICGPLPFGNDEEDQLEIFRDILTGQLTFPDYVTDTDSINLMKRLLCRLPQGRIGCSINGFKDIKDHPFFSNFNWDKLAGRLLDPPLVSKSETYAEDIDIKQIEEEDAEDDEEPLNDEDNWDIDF
Sequence of PI3KD (O00329 whole entry): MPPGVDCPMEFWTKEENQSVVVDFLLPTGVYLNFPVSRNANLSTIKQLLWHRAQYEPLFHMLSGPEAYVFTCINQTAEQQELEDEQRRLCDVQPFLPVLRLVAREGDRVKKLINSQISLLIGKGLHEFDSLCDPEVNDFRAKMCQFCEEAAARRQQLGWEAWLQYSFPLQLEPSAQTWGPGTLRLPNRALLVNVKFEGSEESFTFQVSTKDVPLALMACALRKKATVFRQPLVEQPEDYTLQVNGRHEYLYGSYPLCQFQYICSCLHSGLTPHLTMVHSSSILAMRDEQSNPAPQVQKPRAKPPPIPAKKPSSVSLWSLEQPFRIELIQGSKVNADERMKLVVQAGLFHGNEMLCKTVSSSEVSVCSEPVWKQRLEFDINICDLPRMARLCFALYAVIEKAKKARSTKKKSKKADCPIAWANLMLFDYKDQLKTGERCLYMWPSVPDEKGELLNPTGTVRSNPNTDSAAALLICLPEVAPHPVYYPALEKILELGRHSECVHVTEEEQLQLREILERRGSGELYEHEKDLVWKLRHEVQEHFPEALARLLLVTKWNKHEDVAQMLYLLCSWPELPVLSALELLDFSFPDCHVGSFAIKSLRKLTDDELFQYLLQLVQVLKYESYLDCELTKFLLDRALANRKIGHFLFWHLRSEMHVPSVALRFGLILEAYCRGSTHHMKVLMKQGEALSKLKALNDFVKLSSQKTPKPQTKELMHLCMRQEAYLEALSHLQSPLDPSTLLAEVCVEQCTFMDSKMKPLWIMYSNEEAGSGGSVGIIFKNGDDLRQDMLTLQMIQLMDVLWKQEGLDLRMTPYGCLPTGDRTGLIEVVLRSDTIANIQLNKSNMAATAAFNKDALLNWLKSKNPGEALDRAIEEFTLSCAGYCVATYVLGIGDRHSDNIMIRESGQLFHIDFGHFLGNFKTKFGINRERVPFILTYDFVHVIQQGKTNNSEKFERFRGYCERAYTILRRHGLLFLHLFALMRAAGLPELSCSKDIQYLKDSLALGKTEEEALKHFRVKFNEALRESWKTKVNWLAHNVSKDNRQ
Sequence of PI3KD (P27986 whole entry partner): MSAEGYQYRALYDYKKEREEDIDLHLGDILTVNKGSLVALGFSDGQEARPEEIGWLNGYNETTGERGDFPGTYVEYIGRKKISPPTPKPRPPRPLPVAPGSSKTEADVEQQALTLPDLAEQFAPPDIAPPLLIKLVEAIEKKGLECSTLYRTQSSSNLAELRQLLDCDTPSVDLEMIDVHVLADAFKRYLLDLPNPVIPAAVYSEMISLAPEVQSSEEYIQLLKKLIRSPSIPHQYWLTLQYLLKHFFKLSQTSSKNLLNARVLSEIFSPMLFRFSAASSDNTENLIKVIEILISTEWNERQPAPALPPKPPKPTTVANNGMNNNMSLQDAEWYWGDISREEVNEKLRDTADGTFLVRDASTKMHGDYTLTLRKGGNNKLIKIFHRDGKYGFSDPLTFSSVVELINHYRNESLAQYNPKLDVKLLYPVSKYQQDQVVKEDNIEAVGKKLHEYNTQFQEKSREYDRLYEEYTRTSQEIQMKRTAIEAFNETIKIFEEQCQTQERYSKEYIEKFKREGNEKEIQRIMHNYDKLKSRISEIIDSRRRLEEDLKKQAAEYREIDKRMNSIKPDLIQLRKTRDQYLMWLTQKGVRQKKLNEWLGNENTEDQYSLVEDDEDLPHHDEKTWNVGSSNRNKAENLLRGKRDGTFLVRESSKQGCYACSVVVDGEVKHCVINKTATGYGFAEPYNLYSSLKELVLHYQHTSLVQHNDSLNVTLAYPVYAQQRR

Regarding `CS(=O)(=O)c1ccc(-c2cnc(N)c(-c3ccc(C(F)(F)F)nc3)c2)cc1` [MMV390048], the ED90 with P. falciparum is 0.57 mg/kg; in the series on P. berghei, 1.1 mg/kg.

Turning to `Nc1nccc(-c2c(-c3ccc(F)cc3)ncn2C2CCNCC2)n1` [Compound 1], the IC50 is 0.066 µM at WT PfPKG, above 100 µM against TQ PfPKG (PfPKG_T618Q), above 100 µM in the series with HepG2 cells and above 50.1 µM against PI3KD. For the same compound, the solubility at 1 h stood at 155 µM (≈ 52.5 µg/mL) in series [1] (pH 7.4, aqueous buffer, kinetic from dmso stock) and 291 µM (≈ 98.5 µg/mL) in series [1]. Also, the PFI in “PFI” amounted to 3.8. In series [2], this compound showed an AM Perm of 9.1 ×10⁻⁶ cm/s. The chromatographic logD in [3] is 0.8.

For the compound `CC(C)(C)c1nc(-c2cccc(NS(=O)(=O)c3c(F)cccc3F)c2F)c(-c2ccnc(N)n2)s1` [dabrafenib], the “patients experiencing severe adverse events” value in series [4] was 24%.
